# Results published in PubChem BioAssay (NCI).
#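 Five concentrations, 48 hours, 96-well plates. At the TGI there is no net growth.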 Where a SMILES comes first, the peptide text is derived from it. Bridges are numbered along the chain shown (N, C = ends). [ ]: non-standard residue; d: D form. Aib = CC(C)(N)C(=O)O; βAla = NCCC(=O)O
# Experiments:
# Experiment in all cases: NCI tumour cell line growth inhibition, 48 h
# [1] = test system: NCI-H226 lung
# [2] = test system: SF-295 CNS
# [3] = test system: MDA-MB-435
# [4] = test system: SK-MEL-28 melanoma
# [5] = test system: HT29 colon
# [6] = test system: RPMI-8226 leukemia
# [7] = test system: UACC-62 melanoma
# [8] = test system: HCT-116 colon
# [9] = test system: RXF 393 renal
# [10] = test system: HCT-15 colon
# [11] = test system: SK-OV-3 ovarian
SMILES,TGI [1],TGI [2],TGI [3],TGI [4],TGI [5],TGI [6],TGI [7],TGI [8],TGI [9],TGI [10],TGI [11]
CC(=O)O[C@@H]1C[C@]2(C(=O)c3ccccc3)C(=O)C(=O)S[C@]12c1ccccc1,> 100 µM,> 100 µM,> 100 µM,> 100 µM,> 100 µM,99.4 µM,> 100 µM,> 100 µM,49.9 µM,> 100 µM,> 100 µM
CCOC1CN=C(Nc2cccc3ccccc23)S1 (configuration not stated),> 10 µM,> 10 µM,> 10 µM,> 10 µM,> 10 µM,> 10 µM,> 10 µM,> 10 µM,> 10 µM,> 10 µM,> 10 µM
CCOC(=O)Cc1csc(NC(NC(=O)OCC)(C(=O)OCC)C(F)(F)F)n1 (configuration not stated),> 100 µM,> 100 µM,> 100 µM,> 100 µM,> 100 µM,> 100 µM,,> 100 µM,> 100 µM,> 100 µM,> 100 µM
COc1ccc(C2SC(N)=Nc3c2c(C)nn3C(=O)c2ccccc2O)cc1OC (configuration not stated),> 10 µM,> 10 µM,> 10 µM,> 10 µM,> 10 µM,> 10 µM,7.93 µM,7.47 µM,> 10 µM,> 10 µM,> 10 µM
CC(/C=C/C(=O)NO)=C\C(C)C(=O)c1ccc(N(C)C)cc1 (configuration not stated),12.9 µM,0.454 µM,0.0467 µM,14.8 µM,> 100 µM,74.1 µM,0.063 µM,11.5 µM,0.104 µM,21.4 µM,0.224 µM
C[C@H](C1CC(C)(O)C(C)(O)C(O)O1)[C@H]1CC[C@H]2[C@@H]3[C@@H]4O[C@@H]4[C@@]4(O)CC=CC(=O)[C@]4(C)[C@H]3CC[C@]12C (some centres not stated),> 50 µM,> 50 µM,> 50 µM,> 50 µM,> 50 µM,> 50 µM,> 50 µM,> 50 µM,> 50 µM,> 50 µM,> 50 µM
O=C(C=P(c1ccccc1)(c1ccccc1)c1ccccc1)c1ccc(-c2cccs2)cc1,8.4 µM,17.4 µM,10.9 µM,15.7 µM,13.7 µM,5.07 µM,10.7 µM,13.9 µM,15.4 µM,24.7 µM,20.6 µM
CC1(C)NC(=O)C(NC(=O)C(N)CC(=O)O)CCCCNC(=O)CCNC1=O (configuration not stated) (H-DK[Aib][βAla]; lactam 2-C; configuration not given here),> 100 µM,> 100 µM,> 100 µM,> 100 µM,> 100 µM,> 100 µM,> 100 µM,> 100 µM,> 100 µM,> 100 µM,> 100 µM
CSc1ncnc2c1ncn2CCC(=O)O,> 100 µM,> 100 µM,> 100 µM,> 100 µM,> 100 µM,> 100 µM,> 100 µM,> 100 µM,> 100 µM,,> 100 µM
C=C(Cl)C(Cl)(CBr)CCC(Br)C(C)(C)Br (configuration not stated),37.2 µM,3.78 µM,24.5 µM,10.1 µM,2.41 µM,2.01 µM,28.5 µM,4.04 µM,4.03 µM,9.35 µM,26.5 µM
Nc1nc(Cl)cc(NCC2(O)CCC2)n1,> 100 µM,> 100 µM,> 100 µM,> 100 µM,> 100 µM,> 100 µM,> 100 µM,> 100 µM,> 100 µM,> 100 µM,> 100 µM
CCOC(=O)c1cc(C2CCN(c3ccccc3)C2=O)c(/C(O)=C/C(C)=O)[nH]1 (configuration not stated),> 100 µM,> 100 µM,> 100 µM,> 100 µM,> 100 µM,> 100 µM,> 100 µM,> 100 µM,55.6 µM,> 100 µM,> 100 µM
O=C(O)c1ccccc1C(=O)NCC1S(=O)(=O)OCCOS1(=O)=O,> 100 µM,> 100 µM,> 100 µM,> 100 µM,> 100 µM,> 100 µM,> 100 µM,> 100 µM,> 100 µM,> 100 µM,> 100 µM
Cc1ccc(C)n1-c1ccccc1C1C=Cn2c(=O)nnc3c(OC(C)C)c(OC(C)C)c(O)c1c32 (configuration not stated),53.6 µM,> 100 µM,58.5 µM,38.1 µM,43.6 µM,42.4 µM,> 100 µM,70.1 µM,77.3 µM,60.4 µM,> 100 µM
COc1ccc(N=c2oc3ccccc3cc2C(N)=O)cc1,> 100 µM,75.1 µM,> 100 µM,> 100 µM,> 100 µM,> 100 µM,> 100 µM,> 100 µM,> 100 µM,> 100 µM,47.7 µM
CC(=O)OC[C@H]1CN(OC(C)=O)C[C@@H](n2cc(C)c(=O)[nH]c2=O)O1,> 100 µM,> 100 µM,> 100 µM,> 100 µM,,> 100 µM,> 100 µM,> 100 µM,> 100 µM,> 100 µM,> 100 µM
O=C(Nc1ccccc1)c1cc(S(=O)(=O)Nc2n[nH]c(=O)n2-c2ccccc2)c(S)cc1Cl,> 100 µM,,> 100 µM,> 100 µM,> 100 µM,> 100 µM,> 100 µM,> 100 µM,> 100 µM,> 100 µM,> 100 µM
CC1CC(N)=C(C#N)C1(C#N)C#N (configuration not stated),> 100 µM,> 100 µM,> 100 µM,,> 100 µM,> 100 µM,> 100 µM,> 100 µM,> 100 µM,> 100 µM,> 100 µM
CC1=NN(c2cccc(Cl)c2)C2(SCC(=O)N2c2nc3ccccc3s2)C1=CC=Cc1ccccc1 (configuration not stated),> 100 µM,> 100 µM,> 100 µM,> 100 µM,> 100 µM,> 100 µM,,73.7 µM,64.1 µM,> 100 µM,68.5 µM
CC(=O)OCCn1cnc2c(NCC=C(C)C)ncnc21,> 100 µM,> 100 µM,> 100 µM,> 100 µM,> 100 µM,> 100 µM,,> 100 µM,> 100 µM,,> 100 µM
